Results as given in patent publication US9943569B2, “Method for preventing or reducing postoperative pulmonary complications” (OSAKA UNIVERSITY, priority 2015, dated 2018).

Test system: C-reactive protein (CRP)
Assay: Postoperative change in serum CRP
Assay type: in vivo, human
Conditions: n=20
Description: The primary endpoint of this study was SIRS duration. The secondary endpoints were postoperative complications, serum C-reactive protein (CRP) and IL-6 levels, time required to attain a positive nitrogen balance, and changes in body weight and body composition. Postoperative complications were defined as adverse events caused by surgery. Patients received an intravenous continuous infusion of ghrelin (0.5 μg/kg/h) or placebo (pure saline) for 5 days postoperatively. Ghrelin was diluted to a final volume of 48 mL with saline, and the solution was administered at a rate of 2 mL/h by using an infusion pump through a central venous catheter inserted into the right subclavian vein. The same amount of ghrelin was administered via intravenous infusion during the 5 days of treatment; the dose was calculated on the basis of body weight on the day before surgery. Patients in the placebo group received the corresponding infusion containing pure saline using same procedure.
Blood sampling was performed at the following 7 time points: before surgery; 2 hours after initiation of surgery (during thoracotomy); 4 hours after initiation of surgery (during laparotomy); and on PODs 1, 3, 7, and 10. Complete blood count was performed every day for at least 10 PODs. If the leukocyte count was not within the normal range on POD10, complete blood counts were performed daily until it was within the normal range for 3 consecutive days. SIRS was diagnosed according to the criteria proposed by the American College of Chest Physicians/Society of Critical Care Medicine Consensus Conference^32 and when 2 or more of the following criteria were present: (1) body temperature less than 36° C. or more than 38° C.; (2) heart rate more than 90 beats per minute; (3) tachypnea with more than 20 breaths per minute or an arterial partial pressure of carbon dioxide less than 32 mm Hg; and (4) white blood cell count less than 4000 cells/mm^3, >12,000 cells/mm^3, or an immature (band) form more than 10%. Postoperative complications were evaluated according to the Clavien-Dindo classification.^33 Grade I required no treatment, grade II required medical therapy, grade Ma required interventions but not general anesthesia, grade Mb required general anesthesia, grade IV represented life-threatening states that required intensive care, and grade V represented death.

With `CCCCCCCC(=O)OC[C@H](NC(=O)[C@H](CO)NC(=O)CN)C(=O)N[C@@H](Cc1ccccc1)C(=O)N[C@@H](CC(C)C)C(=O)N[C@@H](CO)C(=O)N1CCC[C@H]1C(=O)N[C@@H](CCC(=O)O)C(=O)N[C@@H](Cc1cnc[nH]1)C(=O)N[C@@H](CCC(N)=O)C(=O)N[C@@H](CCCNC(=N)N)C(=O)N[C@H](C(=O)N[C@@H](CCC(N)=O)C(=O)N[C@@H](CCC(N)=O)C(=O)N[C@@H](CCCNC(=N)N)C(=O)N[C@@H](CCCCN)C(=O)N[C@@H](CCC(=O)O)C(=O)N[C@@H](CO)C(=O)N[C@@H](CCCCN)C(=O)N[C@@H](CCCCN)C(=O)N1CCC[C@H]1C(=O)N1CCC[C@H]1C(=O)N[C@@H](C)C(=O)N[C@@H](CCCCN)C(=O)N[C@@H](CC(C)C)C(=O)N[C@@H](CCC(N)=O)C(=O)N1CCC[C@H]1C(=O)N[C@@H](CCCNC(=N)N)C(=O)O)C(C)C` [ghrelin] the “Serum CRP” value (POD1) was 6.6 ± 2.0 mg/dL, the “Serum CRP” value (POD3) was 11.1 ± 6.6 mg/dL and the “Serum CRP” value (POD3, listed as Ghrelin) was 11.1 ± 6.6 mg/dL. For the same compound, the “Serum CRP” value (POD7) was 4.3 ± 3.6 mg/dL, the “Serum CRP” value (POD7, listed as Ghrelin) was 4.3 ± 3.6 mg/dL and the “Serum CRP” value (POD10) was 2.1 ± 2.3 mg/dL. For the same compound, the “Serum CRP” value (POD10, listed as Ghrelin) was 2.1 ± 2.3 mg/dL and the “Serum CRP” value (Preoperative (baseline)) was 0.3 ± 0.5 mg/dL.
